system: not listed separately; test: Prodrug stability assay in bio-relevant media (Pancreatin solution in FaSSIF); assay type: in vitro ADME; details: HPLC peak area of prodrug at 5 h / 0 h, 0.5 mg/mL Pancreatin in FaSSIF, 37° C.
Description: Prodrug Stability Assay in Bio-Relevant Media
The following assay was employed to evaluate the stability of the prodrugs in simulated gastrointestinal tract conditions. Preparation of fasted state simulated intestinal fluid (FaSSIF) using Phares SIF Powder was carried out according to protocols from Phare Drug Delivery AG (Baselland, Switzerland). For sample preparation, 10 μL stock solutions (10 mM) of prodrug substance in DMSO was added to 990 μL of 0.5 mg/mL Pancreatin solution (Fisher CAS #8049-47-6) in FaSSIF. Two samples were prepared for each compound. If the sample was a clear solution, it was directly analyzed by HPLC. If the sample was not clear, the sample was diluted with 100% MeCN, maintained at 37° C. and observed 5 h later. If the sample was clear, HPLC analysis was directly performed. If the sample was still not clear, the sample was diluted with 100% ACN and assayed by HPLC. All the samples were vortexed for 3 min and observed before injection. For the diluted samples, the area is multiplied by a dilution factor when the data is analyzed. The analysis was carried out with an Agilent 1100 series HPLC with autosampler. The column was a Poroshell 120 EC-C18, 4.6×50 mm, 2.7 μm. The flow rate was 1.8 mL/min, and the injection volume was 5 or 10 μL. UV detection was in the range 210-400 nm. […]

With `CCCOC(=O)C(C)(C)NP(=O)(CO[C@H](C)Cn1cnc2c(N)ncnc21)C(C(=O)OC(C)C)C(=O)OC(C)C` (single isomer, unassigned) [Example 2B] as the compound, how does the “GI Tract stability” value read?
The value was 87.2%.

system: HIV-1; test: Human PBMC based HIV-1 replication assay; assay type: cell-based; details: Human immunodeficiency virus 1, PBMC, PHA-activated human PBMCs, 24 h preincubation with compound, infected with GFP-encoding HIV-1 construct
Description: Assessing Antiviral Potency in a Human PBMC Based HIV-1 Replication Assay
The antiviral activity of the tenofovir prodrugs of the Examples herein was assessed in a human peripheral blood mononuclear cell (PBMC) based HIV-1 replication assay and performed as follows. Human PBMCs were treated with PHA ([…]) in RPMI 1640 medium containing 10% heat inactivated FBS for 2 to 3 days. Compound plates were prepared by dispensing compounds dissolved in DMSO into wells of 384 well poly-D-lysine-coated plates (0.2 μl/well) using an ECHO acoustic dispenser. Each compound was tested in a 10-point serial 3-fold dilution (typical final concentrations: 5.0 μM-0.1 nM). Controls included no inhibitor (DMSO only) and a combination of three antiviral agents (efavirenz, indinavir, an in-house integrase strand transfer inhibitor at final concentrations of 4 μM each). PHA-activated human PBMCs were added to the compound plates and incubated for 24 hours at 37° C./5% CO2/90% relative humidity. The PBMCs were then infected with an HIV-1 construct that encodes Green Fluorescence Protein (GFP) and the infected cells were incubated at 37° C./5% CO2/90% relative humidity for additional 24 hours.
Infected cells were quantified by counting the number of green cells in each well using an Acumen eX3 scanner. IC50 values were determined by non-linear 4-parameter curve fitting.

With `CCCOC(=O)C(C)(C)NP(=O)(CO[C@H](C)Cn1cnc2c(N)ncnc21)C(C#N)C(=O)OC(C)C` (stereo partly drawn) [Example 1, Propyl 2-((((R)-1-(6-amino-9H-purin-9-yl)propan-2-yloxy)methyl)(1-cyano-2-isopropoxy-2-oxoethyl)phosphorylamino)-2-methylpropanoate] as the compound, how does the IC50 read?
Its IC50 is 1520 nM.

Which IC50 does the source give for `CCCOC(=O)C(C)(C)NP(=O)(CO[C@H](C)Cn1cnc2c(N)ncnc21)Cc1ccccc1` (stereo partly drawn) [Example 9, Propyl 2-((((R)-1-(6-amino-9H-purin-9-yl)propan-2-yloxy)methyl)(benzyl)phosphorylamino)-2-methylpropanoate] here?
The IC50 was 965 nM.

With `CCCOC(=O)C(C)(C)NP(=O)(CC#N)CO[C@H](C)Cn1cnc2c(N)ncnc21` (stereo partly drawn) [Example 4, Propyl 2-((((R)-1-(6-amino-9H-purin-9-yl)propan-2-yloxy)methyl)(cyanomethyl)phosphorylamino)-2-methylpropanoate] as the compound, how does the IC50 read?
Its IC50 is over 2100 nM.

For `CCCOC(=O)C(C)(C)NP(=O)(CO[C@H](C)Cn1cnc2c(N)ncnc21)CC(=O)OC(C)(C)C` (stereo partly drawn) [Example 8, Propyl 2-((((R)-1-(6-amino-9H-purin-9-yl)propan-2-yloxy)methyl)(2-tert-butoxy-2-oxoethyl)phosphorylamino)-2-methylpropanoate], which IC50 is on record?
Its IC50 is over 2100 nM.

Which IC50 does the source give for `CCCOC(=O)C(C)(C)NP(=O)(CO[C@H](C)Cn1cnc2c(N)ncnc21)CC(=O)OC(C)C` (single isomer, unassigned) [Example 3A] here?
The IC50 was 189 nM.

Which IC50 does the source give for `CCCOC(=O)C(C)(C)NP(=O)(CO[C@H](C)Cn1cnc2c(N)ncnc21)C(C(=O)OC(C)C)c1ccccc1` (stereo partly drawn) [Example 5, Propyl 2-((((R)-1-(6-amino-9H-purin-9-yl)propan-2-yloxy)methyl)(2-isopropoxy-2-oxo-1-phenylethyl)phosphorylamino)-2-methylpropanoate] here?
Its IC50 is 58.8 nM.

Which IC50 does the source give for `CCCOC(=O)C(C)(C)NP(=O)(CO[C@H](C)Cn1cnc2c(N)ncnc21)C(C#N)C#N` (single isomer, unassigned) [Example 6A] here?
The IC50 was over 2100 nM.

same assay, conditions: PHA-activated human PBMCs, 24 h preincubation with compound, infected with GFP-encoding HIV-1 construct

Which IC50 does the source give for `CCCOC(=O)C(C)(C)NP(=O)(CO[C@H](C)Cn1cnc2c(N)ncnc21)C(C(=O)OC(C)C)C(=O)OC(C)C` (single isomer, unassigned) [Example 2B] here?
The IC50 was 6.8 nM.

With `CCCOC(=O)C(C)(C)NP(=O)(CO[C@H](C)Cn1cnc2c(N)ncnc21)CC(=O)N(CC)CC` (single isomer, unassigned) [Example 7B] as the compound, how does the IC50 read?
Its IC50 is over 2100 nM.

For `CCCOC(=O)C(C)(C)NP(=O)(CO[C@H](C)Cn1cnc2c(N)ncnc21)C(C#N)C#N` (single isomer, unassigned) [Example 6B], which IC50 is on record?
The IC50 was over 2100 nM.

With `CCCOC(=O)C(C)(C)NP(=O)(CO[C@H](C)Cn1cnc2c(N)ncnc21)CC(=O)OC(C)C` (single isomer, unassigned) [Example 3B] as the compound, how does the IC50 read?
The IC50 was 226 nM.

With `CCCOC(=O)C(C)(C)NP(=O)(CO[C@H](C)Cn1cnc2c(N)ncnc21)CC(=O)N(CC)CC` (single isomer, unassigned) [Example 7A] as the compound, how does the IC50 read?
Its IC50 is 931 nM.

With `CCCOC(=O)C(C)(C)NP(=O)(CO[C@H](C)Cn1cnc2c(N)ncnc21)C(C(=O)OC(C)C)C(=O)OC(C)C` (single isomer, unassigned) [Example 2A] as the compound, how does the IC50 read?
Its IC50 is 73.9 nM.

Reference: patent US11826375B2, “Phosphinic amide prodrugs of tenofovir” (Merck Sharp & Dohme LLC, priority 2018, dated 2023)
